Experimental data published in patent US20060099681A1, “Human and mouse alkaline ceramidase 1 and skin diseases” (U.S. DEPARTMENT OF VETERANS AFFAIRS, priority 2004, published 2006).

Biological target: T1, mouse alkaline ceramidase 1 (maCER1) (Mus musculus, UniProt Q8R4X1)
T1 construct: The ORF of the mouse alkaline ceramidase was amplified from the mouse liver cDNA library; made in house; host or cells: Saccharomyces cerevisiae mutant strain Δypc1Δydc1 (microsomes, galactose-induced, pYES2-FLAG-maCER1)
T1 sequence (Q8R4X1 1-273): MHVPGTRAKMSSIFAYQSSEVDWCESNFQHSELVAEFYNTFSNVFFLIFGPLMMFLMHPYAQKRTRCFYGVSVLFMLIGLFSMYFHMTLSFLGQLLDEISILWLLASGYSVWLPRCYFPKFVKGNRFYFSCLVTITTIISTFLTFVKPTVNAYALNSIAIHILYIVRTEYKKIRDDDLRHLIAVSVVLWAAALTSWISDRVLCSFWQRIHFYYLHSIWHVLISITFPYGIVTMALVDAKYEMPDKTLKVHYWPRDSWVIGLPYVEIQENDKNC
Test: Ceramidase activity assay with maCER1-containing yeast microsomes (release of NBD-fatty acid from D-e-C12-NBD-ceramide)
Assay type: biochemical
Conditions: FIG. 4C; for effect of sphingoid base on ceramidase activity (in words): same concentration range as sphingosine
Protocol: The microsomes, as in FIGS. 2A-D were assayed for ceramidase activity using D-e-C12-NBD-ceramide (200 μM) as substrate at different pH in the presence of 0.2% NP-40 and 5 mM Ca^2+ (FIG. 4A), at pH 8.5 in the presence of different cations (FIG. 4B), or different sphingoid bases (FIG. 4C). Results are the mean±SD of three independent experiments performed in duplicate.
maCER1 was expressed in yeast cells as described (Reference 21). Briefly, the expression construct pYES2-FLAG-maCER1 or the empty vector pYES2-FLAG was transformed into the yeast strain Δypc1Δydc1. Expression of the FLAG-tagged maCER1 was induced by 2% galactose.
Ceramidase activity was determined by the release of NBD-fatty acid from fluorescent substrates, NBD-C12-ceramide, dihydroceramide, or phytoceramide as described (Reference 21). Briefly, 20 μl of microsomes (containing 10-20 μg proteins) in buffer B (25 mM Tris-HCl, pH 8.0, 5 mM CaCl2) was mixed with 20 μl of 200 μM NBD-ceramide in buffer B with 0.4% NP-40 in a 1.5 ml microfuge tube. After incubation at 37° C. for 30-60 min, the reactions were stopped by boiling for 5 min, and dried under a SpeedVec. The released NBD-fatty acid was separated from NBD-ceramide by TLC in a solvent of chloroform:methanol: ammonium hydroxide (90:30:0.5) and quantified by PhosphorImager set at the fluorescent mode. To determine the pH optimum of maCER1, the maCER1 microsomes were resuspended in buffer C (1 mM Tris-HCl, pH 7.4, containing 5 mM CaCl2). To determine a cation effect, the maCER1 microsomes were resuspended in buffer A without CaCl2.

Row | Compound | effect of sphingoid base on ceramidase activity (in words) | IC50 (maCER1 microsomes, substrate D-e-C12-NBD-ceramide (200 μM), read-out: IC50 for the inhibition of ceramidase activity) [µM]
1 | CCCCCCCCCCCCCCC[C@@H](O)[C@@H](N)CO [dihydrosphingosine, D-erythro-dihydrosphingosine] | neither phytosphingosine nor dihydrosphingosine in the same concentration range were inhibitory | 
2 | CCCCCCCCCCCCCC[C@@H](O)[C@@H](O)[C@@H](N)CO [phytosphingosine, D-ribo-phytosphingosine] | neither phytosphingosine nor dihydrosphingosine in the same concentration range were inhibitory | 
3 | CCCCCCCCCCCCC/C=C/[C@@H](O)[C@@H](N)CO [sphingosine, D-erythro-sphingosine] |  | ~80
